The melting point is the temperature, or range, at which the solid turns liquid.

Structures are written as SMILES.

With `CC(C)CC1CC1c1ccccc1NC(=O)c1cn(C)cc1C(F)(F)F` (stereo not shown) [Compound 3.17, 1-methyl-4-trifluoromethyl-1H-pyrrole-3-carboxylic acid [2-(2-isobutyl-cyclopropyl)phenyl]amide], the melting point lay within 61 to 65 °C.

Source of the values: patent US7951752B2, “O-cyclopropyl-carboxanilides and their use as fungicides” (Syngenta Crop Protection, Inc., priority 2002, dated 2011).
